The text below walks through data of ChEMBL document CHEMBL1201862, “PubChem BioAssay data set” (2004).

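Growth conditions: 96-well plates. Treatment: test compound, 48 hours, 5 concentrations. Analysis: linear interpolation between bracketing concentrations; unreached endpoints set to highest concentration. The concentration for 50% growth inhibition is given as GI50.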 The source made the active and inactive calls. Rule as the data show it: active = GI50 up to about 1.1 µM and inactive = higher.

Holding throughout (test): inhibition of tumour cell growth, NCI panel, 48 h
In assay [1] the test system is MDA-MB-231.
Assay [2] relates to SK-MEL-2.
Assay [3] has as its system CCRF-CEM.
Assay [4] deals with HOP-62.
Assay [5] relates to RPMI-8226.
Assay [6] has as its system RXF 393.
The test system of assay [7] is 786-0.
In assay [8] the test system is NCI/ADR-RES.
Assay [9] concerns KM12.
In assay [10] the test system is OVCAR-4.
Assay [11] concerns MDA-MB-435.
The test system of assay [12] is ACHN.
Assay [13] relates to T47D.
For assay [14], the system named is A498.
Assay [15] has as its system SNB-19.
The test system of assay [16] is TK-10.
In assay [17] the test system is OVCAR-3.
The subject of assay [18] is PC-3.
Assay [19] concerns EKVX.

For the compound `C=CC(C)(C)/C=C/c1ccc(O)cc1`, the GI50 in [1] is 36.4 µM (inactive); in assay [2], 23.4 µM (inactive); in [3], 39.3 µM (inactive); in assay [4], 58.2 µM (inactive); in assay [5], 27.5 µM (inactive); in assay [6], 24.8 µM (inactive). For the same compound, the GI50 in assay [7] is 27.7 µM (inactive); in assay [8] it was 47.9 µM (inactive); in assay [9], 39.3 µM (inactive); in [10], 55.5 µM (inactive); in [11] it was 37.9 µM (inactive); in [12], 28.9 µM (inactive). The GI50 is 20 µM (inactive) in [13]; 28.3 µM (inactive) in [14]; 44.3 µM (inactive) in [15]; 36.1 µM (inactive) in [16]; 28.8 µM (inactive) in assay [17]; 28 µM (inactive) in assay [18]. The GI50 in assay [19] is 45.3 µM (inactive).
With `Nc1n[n+]2cc(-c3ccccc3)n(CC(=O)c3ccccc3)c2s1`, the GI50 in assay [1] was 29.5 µM (inactive); in [2], 15.5 µM (inactive); in assay [3] it was 15.8 µM (inactive); in assay [4], 24.8 µM (inactive); in [5] it was 17.1 µM (inactive); in assay [6], 20.4 µM (inactive). In addition, the GI50 in assay [7] is 20.5 µM (inactive); in assay [8], > 100 µM (inactive); in assay [9], 19.8 µM (inactive); in assay [11], 36.9 µM (inactive); in assay [12], 65.2 µM (inactive); in assay [13], 22.6 µM (inactive). Further, the GI50 in assay [14] is > 100 µM (inactive); in assay [15] it was 21.7 µM (inactive); in [16] it was 23.6 µM (inactive); in assay [17] it was 23.8 µM (inactive); in assay [18], 39 µM (inactive); in [19], 39.6 µM (inactive).
Consider `N#CC(Nc1ccccc1)c1ccc(C(C#N)Nc2ccccc2)cc1` (stereo not given), for which the GI50 in [1] was > 100 µM (inactive); in assay [2] it was > 100 µM (inactive); in assay [3], 5.07 µM (inactive); in assay [6], > 100 µM (inactive); in assay [7], 36.5 µM (inactive); in assay [8] it was 46.7 µM (inactive). Besides, the GI50 in assay [9] was > 100 µM (inactive); in assay [10], > 100 µM (inactive); in assay [11], 13.7 µM (inactive); in [12], 22.3 µM (inactive); in assay [13], 24.8 µM (inactive); in assay [14] it was > 100 µM (inactive). The GI50 was 44.5 µM (inactive) in assay [15]; 28.4 µM (inactive) in assay [16]; 35.9 µM (inactive) in assay [17]; 28.8 µM (inactive) in assay [18]; > 100 µM (inactive) in assay [19].
For `C[C@@H](C(=O)O)N1C(c2ccco2)=C(/C(C=O)=C\c2ccco2)C(=O)/C1=C\c1ccco1`, the GI50 in assay [1], in [2], in [3], in assay [4], in assay [5] and in [6] was > 100 µM (inactive) in each case. The GI50 in [7], in assay [8], in [9], in assay [10], in assay [11] and in assay [12] was > 100 µM (inactive) throughout. Moreover, the GI50 in assay [13], in assay [14], in assay [15], in assay [16], in assay [17] and in [18] was > 100 µM (inactive) in each case. Besides, in assay [19], the GI50 was > 100 µM (inactive).
For `N#Cc1cc(N(CCCl)CCCl)c([N+](=O)[O-])cc1[N+](=O)[O-]`, the GI50 in assay [1] is > 100 µM (inactive); in assay [2] it was > 100 µM (inactive); in [3], 19.2 µM (inactive); in assay [4], > 100 µM (inactive); in [5] it was 38.2 µM (inactive); in [7], 81.1 µM (inactive). The GI50 was > 100 µM (inactive) in assay [8]; > 100 µM (inactive) in assay [9]; > 100 µM (inactive) in assay [10]; > 100 µM (inactive) in [11]; 18.1 µM (inactive) in assay [12]; 11.4 µM (inactive) in assay [13]. Besides, the GI50 in assay [14], in assay [15], in [16], in assay [17], in assay [18] and in [19] was > 100 µM (inactive) in each case.
Consider `c1ccc2c(c1)Nc1nc3nonc3nc1N2`, for which the GI50 in assay [1], in assay [2], in [3], in [4], in [5] and in assay [6] was > 100 µM (inactive) each time. The GI50 was > 100 µM (inactive) in assay [7]; > 100 µM (inactive) in assay [8]; > 100 µM (inactive) in [9]; 62.5 µM (inactive) in [10]; > 100 µM (inactive) in assay [11]; > 100 µM (inactive) in assay [12]. The GI50 in assay [13], in [14], in assay [15], in assay [16], in assay [18] and in assay [19] was > 100 µM (inactive) each time.
For the compound `Oc1ccc2oc3c(O)c4ccccc4cc3c2c1`, the GI50 in assay [1] is 12.8 µM (inactive); in assay [2], 7.91 µM (inactive); in assay [3] it was 1.5 µM (inactive); in assay [4] it was 35.2 µM (inactive); in assay [5], 1.31 µM (inactive); in [6], 2.44 µM (inactive). The GI50 in assay [7] is 5.93 µM (inactive); in assay [8] it was 3.03 µM (inactive); in [9] it was 2.22 µM (inactive); in assay [10], 1.93 µM (inactive); in assay [11] it was 0.948 µM (active); in [12], 2.12 µM (inactive). Also, the GI50 was 20.3 µM (inactive) in assay [13]; 2.45 µM (inactive) in assay [14]; 83.4 µM (inactive) in assay [15]; 4.75 µM (inactive) in [16]; 3.53 µM (inactive) in assay [17]; 4.06 µM (inactive) in [18].
In the case of `CCOC(=O)c1cc([N+](=O)[O-])c(Sc2ncnc3nc[nH]c23)c([N+](=O)[O-])c1`, the GI50 was 4.92 µM (inactive) in assay [1]; 8.89 µM (inactive) in [2]; 1.27 µM (inactive) in assay [3]; 11.1 µM (inactive) in assay [4]; 0.865 µM (active) in [5]; 9.59 µM (inactive) in assay [6]. For the same compound, the GI50 is 2.79 µM (inactive) in assay [7]; 2.82 µM (inactive) in [8]; 9.2 µM (inactive) in assay [9]; 2.47 µM (inactive) in [11]; 6.85 µM (inactive) in [12]; 2.96 µM (inactive) in [13]. Further, the GI50 was 12.7 µM (inactive) in [14]; 17.1 µM (inactive) in [15]; 1.09 µM (active) in assay [16]; 1.39 µM (inactive) in [17]; 9.82 µM (inactive) in assay [18]; 4.92 µM (inactive) in assay [19].
